Test: Plasma exposure after oral administration of formulations in rats (LC-MS/MS, WinNonlin)
Experimental: In this study, the exposure and distribution of darunavir and efavirenz were evaluated following oral administration in male Sprague-Dawley rats. Four cohorts of 10 rats each were used in this study. The first cohort involved darunavir using the disclosed formulations and the second cohort darunavir in a control formulation. The third cohort involved efavirenz using the disclosed formulations and the fourth cohort efavirenz in a control formulation.
Formulations were administered orally (PO) at 10 mg/kg of darunavir or efavirenz. Following dosing, blood, urine and fecal samples were collected up to 8-hour post dose (groups 1, 3, 5, and 7) or 24-hour post dose (groups 2, 4, 6, and 8). Brain tissue was collected at 8 hours or 24 hours, following the 8 hour or 24-hour urine and feces sample collection. Plasma, urine, feces, and brain tissue concentrations of the analytes were determined by LC-MS/MS. Plasma pharmacokinetic parameters were determined using WinNonlin (v8.0) software.
Plasma, urine, feces, and brain tissue samples were extracted and analyzed using the methods described as follows.
Analytical stock solutions (1.00 mg/mL of the free drug) were prepared in DMSO. Sample Homogenization Brain tissue and feces samples were homogenized with a Virsonic 100 ultrasonic homogenizer. Each brain tissue sample was first weighed, and then an appropriate volume of 20:80 methanol:water was added to make a 2 mL/gram sample. Samples were then homogenized on ice, and stored frozen until analysis. Feces samples were homogenized with 20:80 MeOH:water (8 mL/gram of tissue) prior to extraction. Standard Preparation (Plasma, Urine, and Brain) Standards were prepared in rat plasma containing sodium heparin as the anticoagulant, or in blank tissue homogenate. Working solutions were prepared in 50:50 acetonitrile:water. […] Diluted urine samples were quantified against the rat plasma calibration curve. Brain and feces tissue homogenates were quantified against calibration curves prepared in matched blank tissue homogenate.

| Compound | plasma concentration of disclosed compositions versus control formulations (disclosed compositions compared with compositions without the bioavailability agents) | average plasma concentration (test animals (disclosed test formulation), at 1 hour) | plasma concentration of disclosed compositions versus control formulations (rat, in vivo) |
| --- | --- | --- | --- |
| CC(C)CN(C[C@@H](O)[C@H](Cc1ccccc1)NC(=O)O[C@H]1CO[C@H]2OCC[C@H]21)S(=O)(=O)c1ccc(N)cc1 [darunavir] | double | approximately 306 ng/mL | – |
| O=C1Nc2ccc(Cl)cc2[C@@](C#CC2CC2)(C(F)(F)F)O1 [efavirenz] | – | – | higher levels |
